Measured values: article PMC4851381, “High Throughput Screening Identifies Novel Lead Compounds with Activity against Larval, Juvenile and Adult Schistosoma mansoni” (PLoS Neglected Tropical Diseases, 2016)
Read-outs that look alike come from different tables or passages of the source.

How the values were obtained:
S. mansoni schistosomula [1] = tested on: S. mansoni schistosomula; design: method as in PMID 19597541, PMID 20668553; conditions: cited from earlier work
Pyoellii = tested on: Pyoellii; design: method as in ChEMBL; conditions: reported by Novartis in Science paper; ref ChEMBL; cited from earlier work
P. falciparum = tested on: P. falciparum; design: method as in Pubchem; conditions: ref Pubchem; cited from earlier work
TrxR1 = tested on: TrxR1; design: method as in ChEMBL; conditions: ref ChEMBL; cited from earlier work
TRPC4 = tested on: TRPC4; design: method as in ChEMBL; conditions: ref ChEMBL; cited from earlier work
S. mansoni schistosomula [2] = assay: Larval HTS and larval dose response (image-based phenotype and motility of schistosomula); assay type: cell-based, Schistosoma mansoni; design: Motility score: scale not given here; conditions: for Motility score / Phenotype score: 10μM control wells; for EC50: Schistosoma mansoni, 72 h, 3 day assay, geometric mean
Method: Experiments were performed using the Puerto Rican strain of S. mansoni maintained in Biomphalaria glabrata and CD1 mice. The strain of snail was one bred by Prof Mike Doenhoff (Nottingham University) for high susceptibility to S. mansoni and ease of breeding in large numbers to high density. Careful attention was paid to controlling infections with rotifers which otherwise would contaminate the HTS schistosomula preparations as well as affecting snail viability. This included recovery of egg masses on short length pieces of polypropylene tubing placed into the breeding tanks and treatment of these with 3 x 10 seconds immersion in 70% ethanol with 3 minutes soaking in clean water in between alcohol treatments. Schistosomula were mechanically prepared as previously described with the modification of using a 45% and 70% Percoll gradient, and the cercarial heads recovered from the 70% layer. All centrifugation steps were done at 350x g. The schistosomula generated were then incubated overnight in M169 supplemented with 100U/ml Penicillin, 300μg/ml Streptomycin, 0.25μg/ml Fungizone (Amphotericin B) (Gibco, UK) and 5% Foetal Calf serum.
The larval HTS was run as described previously. Compound libraries were provided in 384 well plates as liquid either (i) small volumes in polypropylene 384 V-bottom storage plates (Greinerbio-one) that were diluted and 500nL dispensed into black 384 imaging plates (ViewPlate 6007460; PerkinElmer) using the Biomek FxP (Beckman Coulter) or (ii) in an assay-ready format from which a 40nL volume was transferred into wells of imaging plates. […] Therefore, to prevent fungal contamination 0.25μg/ml (0.27μM) of amphotericin B (AMP-B) was added to cultures both during the overnight culture prior to plating and during the 3 day assay.
(§1) The primary HTS and subsequent juvenile and adult screens were run as single point (SP) assays at 10–12.5μM depending on the concentrations in the compound collections. Compounds were tested in duplicate. Where necessary, repeat testing was carried out on re-supplied liquid samples.
(§2) Compounds with activity against all three parasite stages were tested in parallel dose response (DR) assays against juvenile worms and MRC-5 cells. Promising compounds were then tested in the adult DR. For the parasite DR (larvae, juveniles and adults) the concentrations tested were two fold dilutions starting from 2x the primary screening concentrations (i.e. 20–25μM).
(§3) IC50 values were calculated from the drug concentration–response curves using Microsoft XLfit version 5.1.0.0 (2006–2008 ID Business Solutions Ltd). Results were expressed as the geometric mean IC50.

[3] = tested on: S. mansoni juvenile worms; assay: Juvenile worm assay (3 week old worms), single point and dose response; assay type: cell-based; conditions: Schistosoma mansoni
Method: (§4) For production of S. mansoni juvenile or adult worms, mice were infected subcutaneously under mild isoflurane (Merial Animal Health Ltd (UK)) anaesthesia with, respectively 1400 (for juveniles) or 450 cercariae (for adults). Worms were recovered from infected mice using sterile techniques by portal perfusion 3 weeks (for juveniles) or 6 weeks (for adults) post-infection using warm perfusion medium (Dulbecco’s Modified Eagle’s Medium [DMEM], 2mM L-glutamine, 100 Units/ml penicillin, 100μg/ml streptomycin, 20mM Hepes, 10 Units/ml heparin [Sigma, UK] [8]. Adult worms were washed free of red blood cells using the perfusion medium, and finally placed in culture in complete medium (cDMEM: DMEM, 2mM L-glutamine, 100 Units/ml penicillin, 100μg/ml streptomycin, 10% foetal calf serum (FCS) at 37°C, in an atmosphere of 5% CO2. Juvenile worms were sedimented successively following washing with cold perfusion medium and then suspended in cold cDMEM until dispensed to avoid attachment to the plastic tubes.
(§5) For the juvenile assay the concentration of worms was adjusted to 40/ml cDMEM and, prior to dispensing, the suspension was cooled on ice to prevent adherence of the worms to the plastic bottles. After swirling to resuspend worms,150μL of suspension was added to the wells of 96 well microtitre plates (Nunc, Thermo Fisher Scientific, UK). Wells were quickly checked and those with <5 worms were marked. The remainder were made up to 200μL and the deficient wells topped up with a worm suspension to ensure that all wells had ≥5 worms. The adult worm assay was as described in [8] except that 1ml cultures containing 3 worm pairs were generally used. Both the juvenile and adult worm assays were assessed for activity on days +1 and +5. Drug effects were determined by assessing the viability of individual worms and calculating the mean percentage inhibition, a hit being defined as ≥70% reduction in viability.
as §1, with “samples. All compounds of interest were re-tested as solid compounds or by repeat synthesis and activity confirmed.” for “samples.”
as §2, §3

S. mansoni adult worms = assay: Adult worm assay, single point and dose response; assay type: cell-based; conditions: Schistosoma mansoni
Method: as §4, §5
as §1, with “samples. All compounds of interest were re-tested as solid compounds or by repeat synthesis and activity confirmed.” for “samples.”
as §2, §3

[4] = Cytotoxicity assay (Alamar blue); assay type: cell-based; conditions: human
Method: Activity against mammalian cells was determined using MRC-5 cells. Cells were maintained in Minimum Essential Medium supplemented with glutamax (Gibco, UK), 1% non-essential amino acids (Gibco, UK) and 10% Foetal bovine serum (Gibco, UK). They were harvested by treatment with 0.25% Trypsin-EDTA for 3 minutes and diluted to 1x10^5/ml. 100μl aliquots of the cell suspension were then plated in 96 well plates (Nunc, Thermo Fisher Scientific, UK). The plates were left to incubate for 24 hours at 37°C and 5% CO2 in a humidified incubator. Cytotoxicity DR assays were set up 24 hours post incubation at 5% CO2 and 37°C, with compounds prepared at 3-fold dilutions starting from 50μM. Dilutions were added to the cells such that the final % DMSO/well was 0.5%. Each drug concentration was tested in duplicate. On each 96 well plate there were negative control wells of media only, MRC-5 cells only and MRC-5 cells with 0.5% DMSO. For positive control wells doxorubicin hydrochloride (Sigma-Aldrich, UK) was added to the cells at 100μM concentration. The cultures were then maintained for a further 72 hours at 37°C and 5% CO2. Drug cytotoxicity was determined using the redox indicator Alamar blue (AbD Serotec, UK). 10μl of Alamar Blue was added to each well and the plates incubated for 4 hours at 37°C and 5% CO2 atmosphere. The fluorescence intensity was measured using a Spectramax Gemini plate reader (Molecular Devices, UK) using an excitation wavelength of 530 nm and an emission wavelength of 580 nm.
as §3

S. mansoni schistosomula [5] = assay: Larval HTS and larval dose response (image-based phenotype and motility of schistosomula); assay type: cell-based, Schistosoma mansoni; design: Motility score: scale not given here; conditions: 10μM control wells, -AMP-B
[6] = Enamine library plates, negative control adjusted to zero
[7] = GSK library plates, negative control adjusted to zero
[8] = MMV library plates, mean ±SD, negative control adjusted to zero
[9] = MMV library plates, negative control adjusted to zero
[10] = Pfizer library plates, negative control adjusted to zero
[11] = 24 h, day 1, read-out: Juvenile (% motility reduction) DAY 1
[12] = 120 h, day 5, read-out: Juvenile (% motility reduction) DAY 5
[13] = first value of cell, geometric mean, * n = 1
[14] = 24 h, day 1, read-out: Adult % motility reduction DAY 1
[15] = 120 h, day 5, read-out: Adult % motility reduction DAY 5
[16] = value in parentheses (second sample; solid vs original liquid sample)
[17] = MRC-5 cells, first value of cell, 72 hours, read-out: MRC5 CC50
[18] = MRC-5 cells, value in parentheses (second sample; solid vs original liquid sample), read-out: MRC5 CC50

Row | Compound | EC50 (S. mansoni schistosomula [2]) [µM] | inhibition at 12.5 µM [3, 11] [%] | inhibition at 12.5 µM [3, 12] [%] | EC50 [3, 13] [µM] | inhibition at 12.5 µM (S. mansoni adult worms; [14]) [%] | inhibition at 12.5 µM (S. mansoni adult worms; [15]) [%] | EC50 (S. mansoni adult worms; first value of cell, * n = 1) [µM] | EC50 [3, 16] [µM] | EC50 (S. mansoni adult worms; [16]) [µM] | CC50 at 72 h [4, 17] [µM] | further results
1 | C[C@@H]1[C@H](O)[C@@H](C)/C=C/C=C/C=C/C=C/C=C/C=C/C=C/[C@H](O[C@@H]2O[C@H](C)[C@@H](O)[C@H](N)[C@@H]2O)C[C@@H]2O[C@](O)(C[C@@H](O)C[C@@H](O)[C@H](O)CC[C@@H](O)C[C@@H](O)CC(=O)O[C@H]1C)C[C@H](O)[C@H]2C(=O)O [AMP-B, amphotericin B] | – | – | – | – | – | – | – | – | – | – | concentrations reported to have lethal activity (S. mansoni schistosomula [1]): 1 to 10 µM
2 | c1ccc(-c2cc(N3CCN(c4ccccn4)CC3)nc(-c3ccccn3)n2)nc1 [CHEMBL579352] | – | – | – | – | – | – | – | – | – | – | activity vs Pyoellii (Pyoellii): 17.5 nM; activity vs two Pfalciparum strains (P. falciparum): < 100 nM
3 | CCOC(=O)C1CCN(C(c2ccccn2)c2c(C)[nH]c3ccccc23)CC1 (centres unmarked) [CHEMBL1390809] | – | – | – | – | – | – | – | – | – | – | activity vs TrxR1 (TrxR1): 1.5 µM; activity as an activator of TRPC4 (TRPC4): 5 to 10 µM
4 | Cc1c(-c2cnccn2)ssc1=S [Oltipraz] | 0.5 | 51 | 100 | 0.8 | 50 | 95 | 0.85 | – | – | – | Motility score (S. mansoni schistosomula [2]; [6]): -0.91 ±0.04; Phenotype score (S. mansoni schistosomula [2]; [6]): -0.49 ±0.13; Motility score (S. mansoni schistosomula [2]; [7]): -0.93 ±0.03; Phenotype score (S. mansoni schistosomula [2]; [7]): -0.64 ±0.06; Phenotype score (S. mansoni schistosomula [2]; [8]): -0.55 ±0.06; Motility score (S. mansoni schistosomula [2]; [9]): -0.95 ±0.02; Motility score (S. mansoni schistosomula [2]; [10]): -0.94 ±0.02; Phenotype score (S. mansoni schistosomula [2]; [10]): -0.56 ±0.08; CC50 at 72 h ([4]; MRC5 CC50): > 50 µM
5 | O=C(C1CCCCC1)N1CC(=O)N2CCc3ccccc3C2C1 (centres unmarked) [Praziquantel] | 1.9 | 57 | 58.4 | 4.7 | 76 | 88 | 0.3 | – | – | – | Motility score (S. mansoni schistosomula [2]; +AMP-B (0.25μg/ml)): -0.57 ± 0.10; Phenotype score (S. mansoni schistosomula [2]; +AMP-B (0.25μg/ml)): -0.38 ± 0.08; Motility score (S. mansoni schistosomula [2]; [6]): -0.52 ±0.08; Phenotype score (S. mansoni schistosomula [2]; [6]): -0.35 ±0.09; Motility score (S. mansoni schistosomula [2]; [7]): -0.67 ±0.12; Phenotype score (S. mansoni schistosomula [2]; [7]): -0.50 ±0.10; Phenotype score (S. mansoni schistosomula [2]; [8]): -0.37 ±0.09; Motility score (S. mansoni schistosomula [2]; [9]): -0.57 ±0.10; Motility score (S. mansoni schistosomula [2]; [10]): -0.63 ±0.07; Phenotype score (S. mansoni schistosomula [2]; [10]): -0.37 ±0.04; CC50 at 72 h ([4]; MRC5 CC50): > 50 µM; Motility score (S. mansoni schistosomula [5]): -0.53 ± 0.10; Phenotype score (S. mansoni schistosomula [5]): -0.21 ± 0.12
6 | Cc1ccccc1C(=O)N1N=C(Nc2ccccc2)SC1(C)C [compound 1355] | 6.7 | 75 | 75 | 5.8 | 75 | 100 | 5.3 | 14.3 | 11.2 | > 50 | CC50 at 72 h [4, 18]: 33.8 µM
7 | COc1ccc(-c2nnc3ccc(-c4cccc(C(C)C)c4)cn23)cc1OC [compound 1507] | 6.6 | 75 | 75 | 4 | 75 | 88 | 1.6 | 9.8 | 3 | 18.6 | –
8 | Clc1ccc(SCc2cc(N3CCCC3)nc(-c3ccccn3)n2)cc1 [compound 1716] | 0.3 | 0 | 84 | 11 | 64 | 98 | 2.8 | 9.5 | 5.4 | > 50 | CC50 at 72 h [4, 18]: > 50 µM
9 | COc1ccc(-c2cnc3cnc(-c4cccc(OC(C)C)c4)cn23)cc1 [compound 1945] | 6.7 | 75 | 75 | 5.7 | 75 | 75 | 4.9 | 13.7 | – | 40.1 | –
10 | c1ccc(-c2[nH]c3ccccc3c2C(c2ccccn2)N2CCCC2)cc1 (centres unmarked) [compound 1956] | 0.5 | 75 | 100 | 2.5 | 56 | 81 | 3.2 | 3.7 | 11.8 | > 50 | –
11 | c1ccc(Oc2ccc(-c3cncc(-c4ccc5[nH]ccc5c4)n3)cc2)cc1 [compound 2045] | 1.4 | 50 | 100 | 2.1 | 37 | 88 | 3.7 | 3.6 | 11 | 20 | –
12 | COc1ccccc1NC1=NN=C(c2cccc(N3CCCC3=O)c2)CS1 [compound 2389] | 6.1 | 0 | 100 | 5.1 | 12.5 | 100 | 6 | 5 | 7.1 | > 50 | CC50 at 72 h [4, 18]: > 50 µM
